Data published in patent US11591604B2, “Gene expression in Bacteroides” (Massachusetts Institute of Technology, priority 2015, dated 2023).

test system: NanoLuc; test: NanoLuc luciferase reporter expression from constitutive promoters and RBSs integrated with pNBU2; type: cell-based, B. thetaiotaomicron; conditions: RBS combined with promoter PBT1311, NanoLuc reporter, three biological replicates
Source text: FIGS. 1A-1G. Genetic parts to control expression in B. thetaiotaomicron. (FIG. 1A) The ranges of gene expression are shown for the different gene regulation systems provided herein. (FIG. 1B) IntN2 catalyzes stable integration of pNBU2-based expression constructs into one of two attBT2 sites in the B. thetaiotaomicron genome. The two attBT2 sites (attBT2-1 at nucleotide (nt) 6,217,227 and attBT2-2 at nt 6,138,320) are in the 3′ ends of tRNA^Ser genes (BT_t71 and BT_t70, respectively). (FIG. 1C) Constitutive promoters and ribosome binding sites for the construction of gene expression libraries. The putative −33 and −7 regions of the PBT1311 promoter, the Shine-Delgarno sequence, and the start codon are indicated by black boxes. Numbers below the black boxes represent nucleotide locations relative the PBT1311 transcription start site. The 26 nt sequences introduced in the PAM promoters are shown (see also FIGS. 6A-6B). Numbers at the edges of the boxes indicate the PBT1311 nucleotides replaced or the insertion site within the promoter. The location of residues randomized in the rpiL* RBS library are indicated with gray arrows (for library A: nt −14, −13, −12; for library B: nt −21, −18, −15; and for library C: nt −17, −16, −11; nt numbering is relative to the translation start site). (FIG. 1D) Activity was measured for a set of constitutive promoters and their cognate RBSs. Furthermore, a set of constitutive promoters (PBT1311, PAM1, PAM2, PAM3, PAM4) was combined with RBSs of varying strengths. Gene expression was measured using a luciferase reporter (NanoLuc). (FIG. 1E) Three large RBS libraries were constructed and combined with promoter PBT1311 to span 10^3-fold in gene expression. For reference, the parent rpiL* RBS is indicated with a black arrow. For D and E, error bars represent the standard deviation of three independent biological replicates made on separate days. (FIG. 1F) The strength of each RBS was compared to the predicted free energy of folding for the mRNA (ΔGfold,). (FIG. 1G) Strong (SEQ ID NO: 210) and weak (SEQ ID NO: 211) consensus sequences for the rpiL* −21 to −11 RBS region targeted by mutagenesis (residue locations are stated relative to the translation start site) are provided. Frequency logos were generated for the 11 strongest and 11 weakest RBSs by comparing the frequency of each nucleotide at each position in that group with the frequency of that nucleotide in that position in the full library. Position −20 and −19 were not randomized and are thus are not shown in the frequency logos.
All genetic parts in this study were characterized using the integration vector pNBU2 to ensure genetic stability of the constructs (FIG. 1B). The pNBU2 plasmid encodes the intN2 tyrosine integrase, which mediates sequence-specific recombination between the attN site of pNBU2 and one of two attBT sites located in the 3′ ends of the two tRNA^Ser genes, BT_t70 and BT_t71, on the B. thetaiotaomicron chromosome (FIG. 1B). Insertion of the pNBU2 plasmid inactivates the tRNA^Ser gene, and simultaneous insertion into both BT_t70 and BT_t71 is unlikely due to the essentiality of tRNA^Ser. pNBU2-based vectors have been used for single-copy complementation in B. thetaiotaomicron in in vitro studies (Koropatkin N M et al. Nat. Rev. Microbiol. 10:323-35, 2012) and in vivo mouse models (Martens E C et al. Cell Host Microbe 4:447-57, 2008).
B. thetaiotaomicron genetic parts were characterized with NanoLuc luciferase (Hall M P et al. ACS Chem. Biol. 7:1848-1857, 2012), which is a small (19 kDa) modified shrimp luciferase. Efforts to use members of the green fluorescent protein family and a FMN-based fluorescent reporter were not successful. NanoLuc oxidizes the exogenously-added substrate furimazine to produce glow-type bioluminescence (Emax=460 nm) with a signal half-life of 2 hr. […]

Substance	Average Luminescence (RLU/CFU)
B30: RBS, SEQ ID NO: 82 (DNA TCCCGCATTTTAAAATAAAATAAATGATGTATTTAATTAAACGAAT; chemistry not fully specified)	0.009276
B31: RBS, SEQ ID NO: 85 (DNA TCCCGCATTTTAAAATAAAATAAATGATCTAGTTAATTAAACGAAT; chemistry not fully specified)	0.008534
B32: RBS, SEQ ID NO: 92 (DNA TCCCGCATTTTAAAATAAAATAAATGATGTAGTTAATTAAACGAAT; chemistry not fully specified)	0.007096
B33: RBS, SEQ ID NO: 97 (DNA TCCCGCATTTTAAAATAAAATAAATCATGTATTTAATTAAACGAAT; chemistry not fully specified)	0.006272
B34: RBS, SEQ ID NO: 98 (DNA TCCCGCATTTTAAAATAAAATAAATCATCTATTTAATTAAACGAAT; chemistry not fully specified)	0.00584
B35: RBS, SEQ ID NO: 105 (DNA TCCCGCATTTTAAAATAAAATAAATCATGTACTTAATTAAACGAAT; chemistry not fully specified)	0.005272
B36: RBS, SEQ ID NO: 112 (DNA TCCCGCATTTTAAAATAAAATAAATCATATAATTAATTAAACGAAT; chemistry not fully specified)	0.004282
B37: RBS, SEQ ID NO: 121 (DNA TCCCGCATTTTAAAATAAAATAAATCATATATTTAATTAAACGAAT; chemistry not fully specified)	0.002567
B38: RBS, SEQ ID NO: 127 (DNA TCCCGCATTTTAAAATAAAATAAATCATTTAGTTAATTAAACGAAT; chemistry not fully specified)	0.001793
B39: RBS, SEQ ID NO: 133 (DNA TCCCGCATTTTAAAATAAAATAAATCATCTAGTTAATTAAACGAAT; chemistry not fully specified)	0.001255
B40: RBS, SEQ ID NO: 134 (DNA TCCCGCATTTTAAAATAAAATAAATCATGTAGTTAATTAAACGAAT; chemistry not fully specified)	0.001108
B41: RBS, SEQ ID NO: 139 (DNA TCCCGCATTTTAAAATAAAATAAATCATATAGTTAATTAAACGAAT; chemistry not fully specified)	0.0001307
C1: RBS, SEQ ID NO: 11 (DNA TCCCGCATTTTAAAATAAAATAAATTATTGATTTAGTTAAACGAAT; chemistry not fully specified)	0.04468
C2: RBS, SEQ ID NO: 13 (DNA TCCCGCATTTTAAAATAAAATAAATTATTACTTTAGTTAAACGAAT; chemistry not fully specified)	0.04331
C3: RBS, SEQ ID NO: 14 (DNA TCCCGCATTTTAAAATAAAATAAATTATTACTTTAATTAAACGAAT; chemistry not fully specified)	0.03677
C4: RBS, SEQ ID NO: 16 (DNA TCCCGCATTTTAAAATAAAATAAATTATTTATTTAGTTAAACGAAT; chemistry not fully specified)	0.03516
C5: RBS, SEQ ID NO: 17 (DNA TCCCGCATTTTAAAATAAAATAAATTATTCATTTAATTAAACGAAT; chemistry not fully specified)	0.03327
C6: RBS, SEQ ID NO: 19 (DNA TCCCGCATTTTAAAATAAAATAAATTATTAATTTAGTTAAACGAAT; chemistry not fully specified)	0.03263

Substance	Average Luminescence (RLU/CFU)
C7: RBS, SEQ ID NO: 20 (DNA TCCCGCATTTTAAAATAAAATAAATTATTAATTTACTTAAACGAAT; chemistry not fully specified)	0.03249
C8: RBS, SEQ ID NO: 21 (DNA TCCCGCATTTTAAAATAAAATAAATTATTTATCGAATTAAACGAAT; chemistry not fully specified)	0.03132
C9: RBS, SEQ ID NO: 23 (DNA TCCCGCATTTTAAAATAAAATAAATTATTGCTTTAATTAAACGAAT; chemistry not fully specified)	0.02988
C10: RBS, SEQ ID NO: 31 (DNA TCCCGCATTTTAAAATAAAATAAATTATTATTTTAATTAAACGAAT; chemistry not fully specified)	0.02583
C11: RBS, SEQ ID NO: 36 (DNA TCCCGCATTTTAAAATAAAATAAATTATTTTTTTACTTAAACGAAT; chemistry not fully specified)	0.02223
C12: RBS, SEQ ID NO: 37 (DNA TCCCGCATTTTAAAATAAAATAAATTATTAGTTTAGTTAAACGAAT; chemistry not fully specified)	0.02151
C13: RBS, SEQ ID NO: 38 (DNA TCCCGCATTTTAAAATAAAATAAATTATTAATTTAATTAAACGAAT; chemistry not fully specified)	0.02149
C14: RBS, SEQ ID NO: 40 (DNA TCCCGCATTTTAAAATAAAATAAATTATTTCTTTACTTAAACGAAT; chemistry not fully specified)	0.02123
C15: RBS, SEQ ID NO: 41 (DNA TCCCGCATTTTAAAATAAAATAAATTATTTCTTTAATTAAACGAAT; chemistry not fully specified)	0.02056
C16: RBS, SEQ ID NO: 43 (DNA TCCCGCATTTTAAAATAAAATAAATTATTAGTTTAATTAAACGAAT; chemistry not fully specified)	0.0203
C17: RBS, SEQ ID NO: 45 (DNA TCCCGCATTTTAAAATAAAATAAATTATTAGTTTATTTAAACGAAT; chemistry not fully specified)	0.01871
C18: RBS, SEQ ID NO: 47 (DNA TCCCGCATTTTAAAATAAAATAAATTATTGTTTTACTTAAACGAAT; chemistry not fully specified)	0.01851
C19: RBS, SEQ ID NO: 48 (DNA TCCCGCATTTTAAAATAAAATAAATTATTGCTTTAGTTAAACGAAT; chemistry not fully specified)	0.01835
C20: RBS, SEQ ID NO: 51 (DNA TCCCGCATTTTAAAATAAAATAAATTATTGTTTTAGTTAAACGAAT; chemistry not fully specified)	0.01758
C21: RBS, SEQ ID NO: 54 (DNA TCCCGCATTTTAAAATAAAATAAATTATTGGTTTAATTAAACGAAT; chemistry not fully specified)	0.01602
C22: RBS, SEQ ID NO: 57 (DNA TCCCGCATTTTAAAATAAAATAAATTATTGTTTTAATTAAACGAAT; chemistry not fully specified)	0.01508
C23: RBS, SEQ ID NO: 60 (DNA TCCCGCATTTTAAAATAAAATAAATTATTGATTTACTTAAACGAAT; chemistry not fully specified)	0.01469
C24: RBS, SEQ ID NO: 67 (DNA TCCCGCATTTTAAAATAAAATAAATTATTTCTTTATTTAAACGAAT; chemistry not fully specified)	0.01287
